Measured values reported in patent US20080287430A1, “Furan Compounds Useful As Ep1 Receptor Antagonists” (priority 2005, published 2008).
Structures can show the parent of a compound that is named as a salt.

Tests used:
human EP1 receptor [1] = molecular target: T1, human EP1 receptor (Homo sapiens, UniProt P34995); assay: Binding assay for the human prostanoid EP1 receptor (competition with [3H]-PGE2); settings: binding to human EP1 receptor, [3H]-PGE2 competition, CHO-K1 cell membranes; averages of a number of experiments; read-out: pIC50 value (converted)
T1 construct: expressed in transfected cells; host or cells: CHO-K1
T1 sequence (P34995 1-402): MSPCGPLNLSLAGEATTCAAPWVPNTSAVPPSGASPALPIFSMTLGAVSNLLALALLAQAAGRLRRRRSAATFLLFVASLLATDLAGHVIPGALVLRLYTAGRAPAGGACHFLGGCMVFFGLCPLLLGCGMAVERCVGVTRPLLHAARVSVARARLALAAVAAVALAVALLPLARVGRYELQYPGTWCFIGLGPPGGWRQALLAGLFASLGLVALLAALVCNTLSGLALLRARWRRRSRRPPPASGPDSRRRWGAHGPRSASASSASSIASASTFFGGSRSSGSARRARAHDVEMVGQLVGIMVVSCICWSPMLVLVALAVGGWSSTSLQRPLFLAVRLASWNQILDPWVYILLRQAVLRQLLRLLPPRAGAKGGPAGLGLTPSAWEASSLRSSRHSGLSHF
Experimental: Competition assay using [^3H]-PGE2.
Compound potencies are determined using a radioligand binding assay. In this assay compound potencies are determined from their ability to compete with tritiated prostaglandin E2 ([^3H]-PGE2) for binding to the human EP1 receptor.
This assay utilises Chinese hamster ovary-K1 (CHO-K1) cells into which a stable vector containing the EP1 cDNA has previously been transfected. Cells are cultured in suitable flasks containing culture medium such as DMEM:F-12 supplemented with 10% v/v foetal calf serum, 2 mM L-glutamine, 0.25 mg/ml geneticin, 10 μg/ml puromycin and 10 μM indomethacin.
Cells are detached from the culture flasks by incubation in calcium and magnesium free phosphate buffered saline containing 1 mM disodium ethylenediaminetetraacetic acid (Na2EDTA) and 10 μM indomethacin for 5 min. The cells are isolated by centrifugation at 250×g for 5 mins and suspended in an ice cold buffer such as 50 mM Tris, 1 mM Na2EDTA, 140 mM NaCl, 10 μM indomethacin (pH 7.4). The cells are homogenised using a Polytron tissue disrupter (2×10 s burst at full setting), centrifuged at 48,000×g for 20 mins and the pellet containing the membrane fraction is washed (optional) three times by suspension and centrifugation at 48,000×g for 20 mins. The final membrane pellet is suspended in an assay buffer such as 10 mM 2-[N-morpholino]ethanesulphonic acid, 1 mM Na2EDTA, 10 mM MgCl2 (pH 6). Aliquots are frozen at −80° C. until required.
For the binding assay the cell membranes, competing compounds and [^3H]-PGE2 (3 nM final assay concentration) are incubated in a final volume of 100 μl for 30 min at 30° C. All reagents are prepared in assay buffer. Reactions are terminated by rapid vacuum filtration over GF/B filters using a Brandell cell harvester. The filters are washed with ice cold assay buffer, dried and the radioactivity retained on the filters is measured by liquid scintillation counting in Packard TopCount scintillation counter.
The data are analysed using non linear curve fitting techniques to determine the concentration of compound producing 50% inhibition of specific binding (IC50).

human EP1 receptor [2] = molecular target: T1, human EP1 receptor; assay: human EP1 calcium mobilisation assay; format: cell-based; settings: human EP1, PGE2-induced calcium mobilisation in CHO-K1 cells; free bases or sodium salts; averages of a number of experiments; read-out: functional pKi value (converted)
Summary of the method: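 CHO-K1 cells stably expressing human EP1, loaded with Fluo-4 after 24 h at 37° C; compounds added before PGE2 challenge. Inhibition of PGE2-induced [Ca2+]i rise read by FLIPR fluorescence; pIC50 from curve fitting of half-maximal inhibition.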

| Structure (SMILES) | IC50 (human EP1 receptor [1]) | Ki (human EP1 receptor [2]) |
| --- | --- | --- |
| O=C(O)c1ccc(Cc2cc(Cl)ccc2OCC2CCCCC2)o1 [Example 6, Sodium 5-({5-chloro-2-[(cyclohexylmethyl)oxy]phenyl}methyl)-2-furancarboxylate] | ≤ 0.01 µM | < 1 µM |
| CC(C)COc1ccc(Cl)cc1Cc1ccc(-c2nc3nc(Br)cnc3[nH]2)o1 [Example 136, 5-Bromo-2-[5-({5-chloro-2-[(2-methylpropyl)oxy]phenyl}methyl)-2-furanyl]-1H-imidazo[4,5-b]pyrazine hydrochloride] | ≤ 0.01 µM | > 1 µM |
| Cc1cc(C(=O)O)oc1Cc1cc(Cl)ccc1OCc1ccccc1 [Example 15, Sodium 5-({5-chloro-2-[(phenylmethyl)oxy]phenyl}methyl)-4-methyl-2-furancarboxylate] | ≤ 0.01 µM | ≤ 0.01 µM |
| OCc1ccc2nc(-c3ccc(Cc4cc(Cl)ccc4OCc4ccccc4)o3)[nH]c2c1 [Example 133, {2-[5-({5-Chloro-2-[(phenylmethyl)oxy]phenyl}methyl)-2-furanyl]-1H-benzimidazol-5-yl}methanol] | ≤ 0.01 µM | < 1 µM |
| O=C(Nc1c(F)cccc1F)c1ccc(Cc2cc(Cl)ccc2OCc2ccc(Cl)cc2Cl)o1 [Example 89, 5-[(5-Chloro-2-{[(2,4-dichlorophenyl)methyl]-oxy}phenyl)methyl]-N-(2,6-difluorophenyl)-2-furancarboxamide] | – | < 1 µM |
| O=C(O)c1ccc(Cc2cc(Cl)ccc2OCc2ccccn2)o1 [Example 26, Sodium 5-({5-chloro-2-[(2-pyridinylmethyl)oxy]phenyl}methyl)-2-furancarboxylate] | – | ≤ 0.01 µM |
| CCC(CC)COc1ccc(Cl)cc1Cc1ccc(C(=O)Nc2c(F)cccc2F)o1 [Example 97, 5-({5-Chloro-2-[(2-ethylbutyl)oxy]phenyl}meth-yl)-N-(2,6-difluorophenyl)-2-furancarboxamide] | – | < 1 µM |
| Cc1cccc(C)c1NC(=O)c1ccc(Cc2cc(Cl)ccc2OCc2ccccc2)o1 [Example 71, 5-({5-Chloro-2-[(phenylmethyl)oxy]-phenyl}methyl)-N-(2,6-dimethylphenyl)-2-furancarboxamide] | – | < 1 µM |
| CC(C)COc1ccc(Cl)cc1Cc1ccc(-c2nc3cc4cn[nH]c4cc3[nH]2)o1 [Example 119, 6-[5-({5-Chloro-2-[(2-methylpropyl)oxy]phenyl}-methyl)-2-furanyl]-1,5-dihydroimidazo[4,5-f]indazole] | – | < 1 µM |
| Fc1cc2nc(-c3ccc(Cc4cc(Cl)ccc4OCc4ccccc4)o3)[nH]c2cc1F [Example 129, 2-[5-({5-Chloro-2-[(phenylmethyl)oxy]phenyl}methyl)-2-furanyl]-5,6-difluoro-1H-benzimidazole] | – | < 1 µM |
| CC(C)COc1ccc(Cl)cc1Cc1ccc(-c2nc3ccc(F)c(F)c3[nH]2)o1 [Example 128, 2-[5-({5-Chloro-2-[(2-methylpropyl)oxy]phenyl}-methyl)-2-furanyl]-4,5-difluoro-1H-benzimidazole] | – | < 1 µM |
| O=C(c1ccc(Cc2cc(Cl)ccc2OCc2ccccc2)o1)n1cnc2ccccc21 [Example 77, 1-{[5-({5-Chloro-2-[(phenylmethyl)oxy]-phenyl}methyl)-2-furanyl]carbonyl}-1H-benzimidazole] | – | < 1 µM |
| O=C(Nc1c(F)cccc1F)c1ccc(Cc2cc(Cl)ccc2OCc2cc(F)c(F)cc2F)o1 [Example 88, 5-[(5-Chloro-2-{[(2,4,5-trifluorophenyl)methyl]oxy}-phenyl)methyl]-N-(2,6-difluorophenyl)-2-furancarboxamide] | – | < 1 µM |
| CC(C)(C)NC(=O)c1ccc(Cc2cc(Cl)ccc2OCc2ccccc2)o1 [Example 51, 5-({5-Chloro-2-[(phenylmethyl)oxy]phenyl}methyl)-N-(1,1-dimethylethyl)-2-furancarboxamide] | – | < 1 µM |
| O=C(O)Cc1ccc(Cc2cc(Cl)ccc2OCc2ccccc2)o1 [Example 16, Sodium [5-({5-chloro-2-[(phenylmethyl)oxy]phenyl}methyl)-2-furanyl]acetate] | – | ≤ 0.01 µM |
| O=C(Nc1c(F)cccc1F)c1ccc(Cc2cc(Cl)ccc2OCc2ccc(Cl)cc2)o1 [Example 90, 5-[(5-Chloro-2-{[(4-chlorophenyl)methyl]oxy}-phenyl)methyl]-N-(2,6-difluorophenyl)-2-furancarboxamide] | – | < 1 µM |
| C=Cc1cnc2[nH]c(-c3ccc(Cc4cc(Cl)ccc4OCC(C)C)o3)nc2c1 [Example 137, 2-[5-({5-Chloro-2-[(2-methylpropyl)oxy]phenyl}methyl)-2-furanyl]-6-ethenyl-1H-imidazo[4,5-b]pyridine hydrochloride] | – | < 1 µM |

Other lines, results leading:

| IC50 (human EP1 receptor [1]) | Ki (human EP1 receptor [2]) | Structure (SMILES) |
| --- | --- | --- |
| ≤ 0.01 µM | < 1 µM | CC(C)COc1ccc(Cl)cc1Cc1ccc(-c2nc3ccc(CCO)cc3[nH]2)o1 [Example 115, 2-{2-[5-({5-Chloro-2-[(2-methylpropyl)oxy]-phenyl}methyl)-2-furanyl]-1H-benzimidazol-5-yl}ethanolhydrochloride] |
| ≤ 0.01 µM | ≤ 0.01 µM | CCC(CC)COc1ccc(Cl)cc1Cc1ccc(C(=O)O)o1 [Example 7, Sodium 5-({5-chloro-2-[(2-ethylbutyl)oxy]phenyl}methyl)-2-furancarboxylate] |
| ≤ 0.01 µM | < 1 µM | O=C(O)c1ccc(Cc2cc(Cl)ccc2OCC2CC2)o1 [Example 3, Sodium 5-({5-chloro-2-[(cyclopropylmethyl)oxy]phenyl}methyl)-2-furancarboxylate] |
| ≤ 0.01 µM | < 1 µM | CC(C)COc1ccc(Cl)cc1Cc1ccc(-c2nc3cnccc3[nH]2)o1 [Example 117, 2-[5-({5-Chloro-2-[(2-methylpropyl)oxy]phenyl}-methyl)-2-furanyl]-1H-imidazo[4,5-c]pyridine] |
| – | < 1 µM | CC(C)COc1ccc(Cl)cc1Cc1ccc(C(=O)NC(C)C)o1 [Example 55, 5-({5-Chloro-2-[(2-methylpropyl)oxy]phenyl}methyl)-N-(1-methylethyl)-2-furancarboxamide] |
| – | < 1 µM | CC(C)COc1ccc(Cl)cc1Cc1ccc(C(=O)NCc2c(F)cccc2F)o1 [Example 43, 5-({5-Chloro-2-[(2-methylpropyl)oxy]phenyl}methyl)-N-[(2,6-difluorophenyl)methyl]-2-furancarboxamide] |
| – | < 1 µM | CC(C)COc1ccc(Cl)cc1Cc1ccc(C(=O)NCc2ccccn2)o1 [Example 58, 5-({5-Chloro-2-[(2-methylpropyl)oxy]-phenyl}methyl)-N-(2-pyridinylmethyl)-2-furancarboxamide] |
| – | < 1 µM | NC(=O)c1ccc(Cc2cc(Cl)ccc2OCc2ccccc2)o1 [Example 78, 5-({5-Chloro-2-[(phenylmethyl)oxy]-phenyl}methyl)-2-furancarboxamide] |
| – | < 1 µM | CC(C)COc1ccc(Cl)cc1Cc1ccc(-c2nc3cscc3[nH]2)o1 [Example 109, 2-[5-({5-Chloro-2-[(2-methylpropyl)oxy]-phenyl}methyl)-2-furanyl]-1H-thieno[3,4-d]imidazole] |
| – | < 1 µM | CC(C)COc1ccc(Cl)cc1Cc1ccc(C(=O)NCc2ccc(C(F)(F)F)cc2)o1 [Example 38, 5-({5-Chloro-2-[(2-methylpropyl)oxy]phenyl}methyl)-N-{[4-(trifluoromethyl)phenyl]methyl}-2-furancarboxamide] |
| – | < 1 µM | CC(C)COc1ccc(Cl)cc1Cc1ccc(C(=O)NC(C)(C)C)o1 [Example 56, 5-({5-Chloro-2-[(2-methylpropyl)oxy]-phenyl}methyl)-N-(1,1-dimethylethyl)-2-furancarboxamide] |
| – | < 1 µM | CC(C)COc1ccc(Cl)cc1Cc1ccc(C(N)=O)o1 [Example 68, 5-({5-Chloro-2-[(2-methylpropyl)oxy]-phenyl}methyl)-2-furancarboxamide] |
